# According to patent US20100311656A1 (priority 2003, published 2010):
# Key:
# [1] = cited from earlier work
# [2] = subcutaneously injected; cited from earlier work
# [3] = 0.2 mg/kg or 2 mg/kg s.c.; no toxicity controls included; cited from earlier work
# SARS-CoV (Urbani) = type: in vivo, mice
# [4] = mouse, in vivo
Substance,Dose found to be safe for humans [1] [mg/kg body weight/day],Plasma half-life [2],Tolerability of the doses used (previously shown) [3],"Effect on virus lung titers (SARS-CoV (Urbani); mouse, in vivo)","Reduction of virus lung titers (SARS-CoV (Urbani); mouse, in vivo)","Reduction of virus titers (SARS-CoV (Urbani); mouse, in vivo)","Virus titer reductions (range over regimens) (SARS-CoV (Urbani); mouse, in vivo)",Tolerability of treatments [4],"Inhibition of lung virus titers (SARS-CoV (Urbani); 50 μg/mouse i.n., positive control, P<0.01) [log 10 units]","Virus Titer (Log10 CCID50/g) (SARS-CoV (Urbani); lung, day 3 after infection, 50 μg/mouse i.n., -24 h, +12 h, mean ± SD, P < 0.01 vs buffer)",Mean Body Weight Change [4] [g]
Ac-SDAAVDTSSEITTKDLKEKKEVVEEAEN-OH [thymosin alpha-1],≤ 16,about two,well tolerated,significantly reduced virus lung titers,about one,approximately 0.5 log10 unit,0.5-1.0 log10 units,very well tolerated,–,–,–
Poly-ICLC,–,–,–,–,–,–,–,–,~3,2.9 ± 0.1,0.0
